Tests used:
human 20S proteasome [1] = test system: T1, human 20S proteasome; test: C-L peptidase activity of latent h20S probed with Z-LLE-AMC; type: biochemical; conditions: 10 μM bortezomib
T1 construct: 20S proteasome was isolated from human erythrocytes; from tissue; host or cells: human erythrocytes
Method: (§1) The capacity of influencing the human 20S proteasome was examined using the latent enzyme isolated from human erythrocytes. Boc-LRR-AMC, Z-LLE-AMC, and Suc-LLVY-AMC fluorogenic substrates (Enzo Life Sciences Inc.) were used for assessment of the trypsin-, caspase-, and chymotrypsin-like activities, respectively. As an additional probe, we utilized a homemade FRET-type substrate DabEDS (Lys(Dabcyl)-[…]EDANS)-Gly[36]). Stock solutions of the substrates and modulators were prepared in dimethyl sulfoxide (DMSO). […] The activity assays were performed in a 96-well plate format in 50 mM Tris/HCl, pH 8.0. The CP was used at a final concentration of 0.002 mg mL^–1 (2.8 nM). The final concentrations of LLVY, LRR, and LLE substrates were 100 μM and DabEDS 15 μM. The concentration of reagents in the tests with inhibitors was as follows: 10 μM bortezomib (tebu-bio), 50 μM leupeptin (Roth), and 10 μM activators. The release of the aminomethylcoumarin (AMC) reporter group was followed by monitoring the fluorescence emission at 460 nm (λex was 380 nm). DabEDS hydrolysis was detected by measuring the emission at 493 nm, while the excitation wavelength was set at 335 nm. Fluorescence measurements were carried out using an Infinite M200 Pro plate reader (Tecan), every 2 min for up to 60 min at 37 °C. All activity assays were performed in at least three independent replicates.

human 20S proteasome [2] = test system: T1, human 20S proteasome; test: ChT-L peptidase activity of latent h20S probed with Suc-LLVY-AMC; type: biochemical; conditions: 10 μM bortezomib, Suc-LLVY-AMC 100 μM; activators could not overcome the inhibition
Method: as §1

## CC(C)C[C@H](NC(=O)[C@H](Cc1ccccc1)NC(=O)c1cnccn1)B(O)O [bortezomib]
Human 20S proteasome [1]
  inhibition of h20S C-L activity (in words): completely blocked the activity of the ChT-L and C-L
Human 20S proteasome [2]
  inhibition of h20S ChT-L activity (in words): complete loss of proteasome activity
